# How the values were obtained:
# [1] = Plasma protein binding rate (PPB) test, equilibrium dialysis; assay type: in vitro ADME, Sprague-Dawley rats; conditions: Sprague-Dawley, rat, 37°C, read-out: Plasma Protein Binding (%) SD Rat Plasma (converted)
# Procedure: In vitro protein binding rates of 0.2 μM, 2 μM, 10 μM of test compounds with Sprague-Dawley rats, beagle dogs, human plasma were determined by equilibrium dialysis.
# The experiment will use a 96-well equilibrium dialysis plate (HTDialysis device) to determine the plasma protein binding rate of the to-be-tested compound and the control compounds.
# Prior to the start of the experiment, the dialysis membrane was pretreated according to the instructions for use and the dialysis unit was assembled as required.
# Blank plasma was taken from CD-1 mice, Sprague-Dawley rats, Beagle dogs, cynomolgus monkeys and humans (an anticoagulant is EDTA-K2, which is a commercial product purchased, or is collected and prepared by the Drug Evaluation Department of Wuxi AppTech, and is stored in a refrigerator below −60° C. before use). A certain volume of the to-be-tested compound or the control compound working solution was added to prepare plasma samples of the compound to be tested at a concentration of 0.2, 2, 10 μM and plasma samples of the control compound at a concentration of 2 μM (n=1). The organic phase content was ≤1%. First, a certain volume of a plasma sample containing the to-be-tested compound and the control compound was taken out into the sample receiving plate as a sample at zero time (T0 sample, n=3); secondly, a plasma sample containing the to-be-tested compound and the control compound was added to one side of the dialysis membrane (plasma end, n=3), and a certain volume of dialysis buffer (buffer end, n=3) was added to the other side of the dialysis membrane; then the dialysis plate was placed in a humidified incubator with 5% CO2 for incubation for 4 hours at 37±1° C.
# After the incubation, a certain volume of the dialyzed buffer sample (F sample) and the dialyzed plasma sample (T sample) were transferred to the sample receiving plate, and all samples were subjected to protein precipitation for LC/MS/MS analysis. And the dissociation rate of the compound (% Unbound) was calculated by the following formula: % Unbound=100*[F]/[T], % Bound=100−% Unbound. Wherein, % Unbound is the dissociation rate of the compound; % Bound is the binding rate of the compound; [F] is the concentration of the compound at the buffer end of the dialysis plate; [T] is the concentration of the compound at the plasma end of the dialysis plate; and the experimental results are shown in Table 7.
# [2] = Determination of kinetic solubility; assay type: physicochemical; conditions: buffer solution pH 7.4, aqueous buffer, kinetic from dmso stock, pH 7.4, 24 hours at room temperature, theoretical maximum 200 μM
# Procedure: The to-be-tested compound was dissolved in DMSO to prepare a 10 mmol/L stock solution. 980 μL of dissolution medium was pipetted into a 2 mL screw-capped glass vial by using a pipette (Eppendorf Research Company). 20 μL of the stock solution of each test compound and the QC sample were added to a buffer solution corresponding to a kinetic detection solution of pH 7.4. The final concentrations of the test compound and DMSO solution were 200 μM and 2%, respectively. The cover of the medicine bottle was screwed. The theoretical maximum concentration is 200 μM. The mixture was shaken at 880 rpm for 24 hours at room temperature. The vial was centrifuged for 30 minutes at 13,000 rpm. 200 μL of the supernatant was added to a 96-well plate by using a digital pipette. The solubility of the test compound was determined by high performance liquid chromatography, and the experimental results are shown in Table 2.
# CYP2C9 = biological target: T1, CYP2C9 (Homo sapiens, UniProt P11712); assay: Human liver microsome CYP inhibition experiment; assay type: in vitro ADME; conditions: pooled human liver microsomes; read-out: Cytochrome P450 isoenzyme IC50 2C9
# T1 construct: Mixed human liver microsomes (pooled HLM, n≥50) were purchased from Corning Inc; tissue Corning Inc. or other qualified suppliers; host or cells: pooled human liver microsomes (n≥50)
# T1 sequence (P11712 whole entry): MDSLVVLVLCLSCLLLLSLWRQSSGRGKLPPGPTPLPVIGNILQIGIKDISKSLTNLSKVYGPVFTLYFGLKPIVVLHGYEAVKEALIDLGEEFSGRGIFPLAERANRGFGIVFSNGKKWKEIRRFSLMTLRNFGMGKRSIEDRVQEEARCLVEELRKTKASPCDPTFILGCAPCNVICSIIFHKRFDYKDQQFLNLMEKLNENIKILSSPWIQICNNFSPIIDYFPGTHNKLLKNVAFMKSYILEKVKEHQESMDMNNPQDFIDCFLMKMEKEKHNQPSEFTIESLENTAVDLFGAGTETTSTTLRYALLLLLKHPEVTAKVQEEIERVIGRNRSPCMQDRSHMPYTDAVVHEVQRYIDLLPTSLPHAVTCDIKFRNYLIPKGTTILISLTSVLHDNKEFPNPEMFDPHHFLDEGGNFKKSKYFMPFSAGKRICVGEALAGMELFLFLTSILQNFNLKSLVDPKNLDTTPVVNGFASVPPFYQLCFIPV
# Procedure: (§1) The research project used a specific probe substrate for each isoenzyme to evaluate the inhibitory effect of the test compound on human liver microsomal cytochrome P450 isoenzymes (CYPIA2. CYP2C9, CYP2C19, CYP2D6, and CYP3A4). Mixed human liver microsomes (pooled HLM, n≥50) were purchased from Corning Inc. (Steuben, N.Y., USA) or other qualified suppliers, and were stored in a refrigerator below −60° C. before use. The diluted series of to-be-tested compound working solutions were added to an incubation system containing cofactors of human liver microsomes, a probe substrate and a circulation system, and the methanol content was about 1% (v/v) of the final incubation system. A control containing no the to-be-tested compound and containing a solvent was used as a control for enzyme activity (100%). The concentration of the analyte in the sample was determined by liquid chromatography-tandem mass spectrometry (LC/MS/MS). The calculation was performed by using the average of the concentrations of the samples (a blank solvent, a positive control inhibitor, or the to-be-tested compound). Non-linear regression analysis was performed by using SigmaPlot (V.11) on the average percent activity of the compound to be tested to the concentration. The IC50 value was calculated by a three-parameter or four-parameter inflection logarithmic equation.
# CYP1A2 = biological target: T2, CYP1A2 (Homo sapiens, UniProt P05177); assay: Human liver microsome CYP inhibition experiment; assay type: in vitro ADME; conditions: pooled human liver microsomes; read-out: Cytochrome P450 isoenzyme IC50 CYP1A2
# T2 construct: Mixed human liver microsomes (pooled HLM, n≥50) were purchased from Corning Inc; tissue Corning Inc. or other qualified suppliers; host or cells: pooled human liver microsomes (n≥50)
# T2 sequence (P05177 1-516): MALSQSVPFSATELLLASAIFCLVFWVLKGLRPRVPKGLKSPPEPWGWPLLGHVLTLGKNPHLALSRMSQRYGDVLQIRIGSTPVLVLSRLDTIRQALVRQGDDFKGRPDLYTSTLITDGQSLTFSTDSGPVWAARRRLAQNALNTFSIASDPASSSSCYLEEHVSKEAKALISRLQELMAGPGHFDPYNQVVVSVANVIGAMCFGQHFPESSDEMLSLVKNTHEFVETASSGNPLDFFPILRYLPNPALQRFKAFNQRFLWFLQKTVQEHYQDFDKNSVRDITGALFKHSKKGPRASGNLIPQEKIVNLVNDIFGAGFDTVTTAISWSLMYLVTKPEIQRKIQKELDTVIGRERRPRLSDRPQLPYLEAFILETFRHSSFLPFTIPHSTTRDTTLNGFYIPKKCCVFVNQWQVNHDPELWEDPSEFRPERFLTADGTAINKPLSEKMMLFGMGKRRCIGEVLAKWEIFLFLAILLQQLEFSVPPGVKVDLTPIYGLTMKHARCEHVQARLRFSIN
# Procedure: as §1
# CYP2D6 = biological target: T3, CYP2D6 (Homo sapiens, UniProt P10635); assay: Human liver microsome CYP inhibition experiment; assay type: in vitro ADME; conditions: pooled human liver microsomes; read-out: Cytochrome P450 isoenzyme IC50 2D6
# T3 construct: Mixed human liver microsomes (pooled HLM, n≥50) were purchased from Corning Inc; tissue Corning Inc. or other qualified suppliers; host or cells: pooled human liver microsomes (n≥50)
# T3 sequence (P10635 whole entry): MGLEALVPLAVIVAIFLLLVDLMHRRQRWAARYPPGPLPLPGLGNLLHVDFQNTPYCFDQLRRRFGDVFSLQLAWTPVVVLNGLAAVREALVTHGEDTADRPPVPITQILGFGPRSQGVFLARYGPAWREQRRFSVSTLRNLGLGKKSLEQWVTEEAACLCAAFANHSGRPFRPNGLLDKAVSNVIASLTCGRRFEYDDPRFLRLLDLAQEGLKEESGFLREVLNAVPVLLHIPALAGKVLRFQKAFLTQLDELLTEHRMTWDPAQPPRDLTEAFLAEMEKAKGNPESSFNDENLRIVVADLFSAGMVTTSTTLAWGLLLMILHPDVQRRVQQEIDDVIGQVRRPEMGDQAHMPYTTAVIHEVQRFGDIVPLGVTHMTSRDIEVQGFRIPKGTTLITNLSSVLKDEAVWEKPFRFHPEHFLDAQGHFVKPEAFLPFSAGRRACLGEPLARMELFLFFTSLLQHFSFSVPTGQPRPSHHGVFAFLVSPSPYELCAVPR
# Procedure: as §1
# CYP3A4 = biological target: T4, CYP3A4 (Homo sapiens, UniProt P08684); assay: Human liver microsome CYP inhibition experiment; assay type: in vitro ADME; conditions: pooled human liver microsomes; read-out: Cytochrome P450 isoenzyme IC50 3A4
# T4 construct: Mixed human liver microsomes (pooled HLM, n≥50) were purchased from Corning Inc; tissue Corning Inc. or other qualified suppliers; host or cells: pooled human liver microsomes (n≥50)
# T4 sequence (P08684 whole entry): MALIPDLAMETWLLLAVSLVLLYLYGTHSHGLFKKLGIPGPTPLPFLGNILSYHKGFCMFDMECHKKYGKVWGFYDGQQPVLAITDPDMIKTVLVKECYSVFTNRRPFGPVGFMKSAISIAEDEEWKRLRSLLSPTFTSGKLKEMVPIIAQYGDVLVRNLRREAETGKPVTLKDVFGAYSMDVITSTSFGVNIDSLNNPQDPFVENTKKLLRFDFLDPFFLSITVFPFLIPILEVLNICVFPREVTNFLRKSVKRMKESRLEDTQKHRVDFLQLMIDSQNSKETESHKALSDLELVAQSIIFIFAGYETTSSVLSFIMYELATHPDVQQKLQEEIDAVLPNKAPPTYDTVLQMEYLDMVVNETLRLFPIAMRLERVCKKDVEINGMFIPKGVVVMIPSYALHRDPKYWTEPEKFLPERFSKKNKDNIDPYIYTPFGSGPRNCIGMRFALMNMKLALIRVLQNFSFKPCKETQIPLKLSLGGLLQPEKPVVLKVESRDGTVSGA
# Procedure: as §1
# CYP2C19 = biological target: T5, CYP2C19 (Homo sapiens, UniProt P33261); assay: Human liver microsome CYP inhibition experiment; assay type: in vitro ADME; conditions: pooled human liver microsomes; read-out: Cytochrome P450 isoenzyme IC50 2C19
# T5 construct: Mixed human liver microsomes (pooled HLM, n≥50) were purchased from Corning Inc; tissue Corning Inc. or other qualified suppliers; host or cells: pooled human liver microsomes (n≥50)
# T5 sequence (P33261 whole entry): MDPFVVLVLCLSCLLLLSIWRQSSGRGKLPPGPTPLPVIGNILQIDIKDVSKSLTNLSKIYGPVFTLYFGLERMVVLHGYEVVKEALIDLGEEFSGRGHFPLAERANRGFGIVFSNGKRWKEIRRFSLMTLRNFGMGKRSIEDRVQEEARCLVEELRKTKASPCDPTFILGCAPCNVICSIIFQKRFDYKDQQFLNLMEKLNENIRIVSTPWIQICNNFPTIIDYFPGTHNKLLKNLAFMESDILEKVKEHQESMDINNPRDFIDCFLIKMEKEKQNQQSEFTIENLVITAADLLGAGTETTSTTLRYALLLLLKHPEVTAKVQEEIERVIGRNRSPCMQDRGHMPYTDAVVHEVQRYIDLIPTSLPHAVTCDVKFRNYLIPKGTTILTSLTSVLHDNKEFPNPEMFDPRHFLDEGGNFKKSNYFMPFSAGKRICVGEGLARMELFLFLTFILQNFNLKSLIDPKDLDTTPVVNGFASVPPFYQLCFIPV
# Procedure: as §1
fraction unbound at 4 h [1],solubility at 24 h [2],IC50 (CYP2C9),IC50 (CYP1A2),IC50 (CYP2D6),IC50 (CYP3A4),IC50 (CYP2C19),SMILES
0.001,> 200 µM,30.5 µM,> 50 µM,> 50 µM,> 50 µM,> 50 µM,COc1ccc2c(c1OCc1ccccc1)C[C@@H](C(=O)O)N(C(=O)[C@@H](OC1CCCC1)c1ccccc1)C2 [Compound 37]
0.055,190 µM,34.4 µM,> 50 µM,> 50 µM,> 50 µM,> 50 µM,COc1ccc2c(c1OCc1ccccc1)C[C@@H](C(=O)O)N(C(=O)[C@@H](OC1CC(F)(F)C1)c1ccccc1)C2 [Compound 51]
0.002,–,–,–,–,–,–,COc1ccc2c(c1OCc1ccccc1)C[C@@H](C(=O)O)N(C(=O)[C@@H](OC1(C)CCCC1)c1ccccc1)C2 [Compound 57]
0.011,190 µM,> 50 µM,> 50 µM,> 50 µM,> 50 µM,> 50 µM,COc1ccc2c(c1OCc1ccccc1)C[C@@H](C(=O)O)N(C(=O)[C@@H](O[C@H]1CC[C@@H](O)CC1)c1ccccc1)C2 [Compound 63]
–,181 µM,14.5 µM,> 50 µM,> 50 µM,> 50 µM,> 50 µM,O=C(O)[C@@H]1Cc2c(ccc(Cl)c2OCc2ccccc2)CN1C(=O)[C@@H](OC1CCCC1)c1ccccc1 [Compound 107]
0.001,192 µM,7.28 µM,13 µM,> 50 µM,9.19 µM,17.6 µM,"COc1ccc2c(c1OCc1ccccc1)C[C@@H](C(=O)O)N(C(=O)C(c1ccccc1)c1ccccc1)C2 [EMA-401, reference compound]"
